According to patent EP1625854B1, “Albumin conjugates containing a glucuronic linker” (Deutsches Krebsforschungszentrum Stiftung des öffentlichen …, priority 2004, dated 2006):

What was measured:
[1] = tested on: synovial fibroblasts (sFb); test: Release of a fluorescent aglycon (methyl umbelliferon) from MUG-HSA in human synovial fibroblasts; type: cell-based
Text: (§1) The amounts given in the Figure relate to 1 well and the methyl umbelliferon glucuronide within the HSA conjugate. After addition of 1 M NaOH methyl umbelliferon was fluorimetrically determined in the cell subernatant at 448 nm with an excitation at 360 nm. […] Thus, despite its coupling to albumin MUG-HSA is a substrate for human synovial fribroblasts. MUG-(HSA) is stable in medium without cells.

[2] = Stability of MUG-HSA in medium without cells; type: in vitro ADME
Text: as §1

WEHI-7 cells = test: Induction of cell death in glucocorticoid-sensitive WEHI-7 cells (propidium iodide staining, fluorimetric analysis); type: cell-based, mouse
Protocol: Cell death in glucocorticoid-sensitive WEHI-7 cells was induced by incubation with low molecular hydrocortisone (HC) and albumin-coupled hydrocortisone (hydrocortisone-21-β-D-glucuronide-HSA; HCG-HSA) over a period of 72 h. Different albumin concentrations were equalized by addition of free HSA. Dead cells were determined by fluorimetric analysis (staining with propidium iodide (PI)). […] Since the albumin conjugate was taken up by the cells via endocytosis (whereas the free HC passes the cell membrane via diffusion) HCG-HSA has to be applied in a two-fold concentration for achieving the same effect.

Substance	cleavage of fluorescent methyl umbelliferon ([1]; in conditioned medium of synovial fibroblasts)	Cleavage ([1]; incubation for 24 h in synovial fibroblasts, methyl umbelliferon fluorimetrically determined in supernatant at 448 nm, excitation 360 nm, Figure 4)	stability in medium [2]	concentration for achieving the same effect (WEHI-7 cells; HCG-HSA relative to free HC, WEHI-7 cells, 72 h)	activity as a glucocorticoid (WEHI-7 cells; despite coupling to albumin, WEHI-7 cells, 72 h)	Cell death (WEHI-7 cells; incubation over 72 h, albumin concentrations equalized with free HSA, dead cells by PI staining, Figure 3)
methyl umbelliferon glucuronide-HSA [MUG-HSA]	could be demonstrated	could be demonstrated	stable	–	–	–
hydrocortisone-21-β-D-glucuronide-HSA [HCG-HSA]	–	–	–	two-fold	keeps its activity	dose dependent cell death
